# Data taken from ChEMBL document CHEMBL3616386, “3-Propionyl-thiazolidine-4-carboxylic acid ethyl esters: a family of antiproliferative thiazolidines” (Medchemcomm, 2015).
# pIC50: −log10 of the molar value.
# How the values were obtained:
# [1] = Cytotoxicity against human HuH7 cells assessed as inhibition of cell proliferation by sulforhodamine B assay; type: functional, cell-based; conditions: Huh-7
# [2] = Cytotoxicity against human MV cells assessed as inhibition of cell proliferation by sulforhodamine B assay; type: functional, cell-based
Compound,pIC50 [1],pIC50 [2]
C#CC(=O)N1C(c2ccccc2)SC[C@@H]1C(=O)OCC (some centres not stated),5.28,6.40
C#CC(=O)N1C(c2ccc(OC)cc2)SC[C@@H]1C(=O)OCC (mixture of isomers),5.85,6.15
C#CC(=O)N1C(c2ccc(F)cc2)SC[C@@H]1C(=O)OCC (mixture of isomers),6.15,6.40
C#CC(=O)N1C(c2cccc(F)c2)SC[C@@H]1C(=O)OCC (mixture of isomers),5.85,5.77
C#CC(=O)N1C(c2ccccc2F)SC[C@@H]1C(=O)OCC (mixture of isomers),5.77,5.77
C#CC(=O)N1C(c2ccc(C#N)cc2)SC[C@@H]1C(=O)OCC (mixture of isomers),5.59,5.62
C#CC(=O)N1C(CCCCC)SC[C@@H]1C(=O)OCC (mixture of isomers),5.74,5.70
C#CC(=O)N1C(CCCC)SC[C@@H]1C(=O)OCC (mixture of isomers),6.30,6.40
C#CC(=O)N1C(C(CC)CCCC)SC[C@@H]1C(=O)OCC (mixture of isomers),5.77,5.80
C#CC(=O)N1C(CC(C)CC(C)(C)C)SC[C@@H]1C(=O)OCC (mixture of isomers),5.80,5.96
C#CC(=O)N1C(C(C)CCC)SC[C@@H]1C(=O)OCC (mixture of isomers),6.22,6.30
C#CC(=O)N1C(C(C)(C)C)SC[C@@H]1C(=O)OCC (mixture of isomers),6.10,6.05
CC[C@@]1(O)C(=O)OCc2c1cc1n(c2=O)Cc2cc3ccccc3nc2-1 [CAMPTOTHECIN],7.00,> 6.00
O=c1[nH]cc(F)c(=O)[nH]1 [FLUOROURACIL],,5.00
